# Assay results as given in ChEMBL document CHEMBL2046362, “Synthesis and evaluation of novel potent HCV NS5A inhibitors” (Bioorg Med Chem Lett, 2012).
# Columns and labels:
# [1] = Cytotoxicity against human PBMC cells; assay type: cell-based; conditions: PBMC cells
# [2] = Cytotoxicity against human HuH7 cells; assay type: cell-based, Huh-7
# [3] = target: T1, Nonstructural protein 5A (Hepatitis C virus) (UniProt Q5L478); assay: Inhibition of HCV NS5A assessed as antiviral activity against HCV by viral replicon assay; conditions: Hepacivirus hominis
# T1 sequence (whole entry): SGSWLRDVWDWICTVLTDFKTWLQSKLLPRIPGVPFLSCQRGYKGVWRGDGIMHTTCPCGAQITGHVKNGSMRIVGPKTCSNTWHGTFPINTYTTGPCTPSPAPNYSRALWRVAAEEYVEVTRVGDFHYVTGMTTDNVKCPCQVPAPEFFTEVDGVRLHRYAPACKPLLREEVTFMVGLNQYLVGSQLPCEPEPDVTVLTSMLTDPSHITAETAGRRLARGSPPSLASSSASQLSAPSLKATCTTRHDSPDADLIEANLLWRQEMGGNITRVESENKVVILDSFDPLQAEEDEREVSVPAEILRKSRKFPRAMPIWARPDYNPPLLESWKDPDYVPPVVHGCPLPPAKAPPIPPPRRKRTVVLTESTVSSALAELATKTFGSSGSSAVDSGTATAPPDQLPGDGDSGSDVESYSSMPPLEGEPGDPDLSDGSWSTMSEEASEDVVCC
structure (smiles),measurement,setting,value
COC(=O)N[C@H](C(=O)N1C[C@H](N=[N+]=[N-])C[C@H]1c1ncc(-c2ccc(-c3ccc(-c4cnc([C@@H]5C[C@@H](N=[N+]=[N-])CN5C(=O)[C@@H](NC(=O)OC)C(C)C)[nH]4)cc3)cc2)[nH]1)C(C)C,CC50,[1],> 100000 nM
same,CC50,[2],> 1000 nM
same,EC90,[3],0.0542 nM
